Test results from paper PMC5537347, “A short D-enantiomeric antimicrobial peptide with potent immunomodulatory and antibiofilm activity against multidrug-resistant Pseudomonas aeruginosa and Acinetobacter baumannii” (Scientific Reports, 2017).
Where two headings read alike, the source gives them in different places.

What was measured:
P. aeruginosa = type: cell-based
Description: (§3) The broth microdilution technique was utilized to assess the MIC of designed peptides according to the guidelines of the Clinical and Laboratory Standards Institute (CLSI)[37].

[1] = tested on: P. aeruginosa PAO1 biofilm; assay: Disruption of established biofilms, microtiter dish crystal violet assay; type: cell-based; conditions: mature (24 hour) biofilm, 24 hours at 37 °C, crystal violet OD 595 nm
Experimental: Figure 1 Efficacy of peptides on established biofilms of P. aeruginosa PAO1 and A. baumannii ATCC BAA-1605. […] After incubation, wells were washed and biofilms were stained with 0.5% (w/v) crystal violet for 30 minutes. The dye was solubilized with ethanol (95%) and the optical density (595 nm) of the biofilm mass was measured. Experiments were repeated twice independently and the average values are reported.
To examine the peptides’ ability to disrupt bacterial biofilms, the microtiter dish biofilm formation assay was employed[41]–[43].

IL-6 = assay: Anti-inflammatory effect on LPS-stimulated macrophages, ELISA; type: cell-based, murine; conditions: J774A.1 cells, LPS 150 ng/mL, six hours
Experimental: (§1) Figure 3 Ability of peptides to neutralize LPS and reduce inflammatory cytokines expression. (A) LPS binding activity of peptides. Peptides at different concentrations were incubated with one endotoxin unit (EU) of LPS at 37 °C for 30 minutes. […] The binding of peptides with LPS is expressed as percent change relative to the untreated samples. (B) Anti-inflammatory effect of peptides on LPS-stimulated macrophages. J774A.1 cells were stimulated with LPS (150 ng/mL final concentration) in the presence of different concentrations of peptides. Cells stimulated with LPS alone and untreated cells served as controls. Cells were incubated for six hours at 37 °C before the supernatant from each treatment group was collected. Detection of tumor necrosis factor-α (TNF-α) and interleukin-6 (IL-6) in supernatants was determined using ELISA. Cytokine levels are expressed as percent change relative to the LPS-stimulated control. Statistical analysis was calculated using one-way ANOVA, with post hoc Tukey’s multiple comparisons test. P < 0.05 was considered significant. One asterisk (*) indicates significant difference with the negative control.
(§2) To assess the anti-inflammatory effect of our peptides on LPS-stimulated macrophages, J774A.1 cells were seeded and incubated as described above (for toxicity assessment). Next, the cells were stimulated with LPS (150 ng/ml final concentration) in the presence of different concentrations of peptides (RR and D-RR4). Cells stimulated with LPS alone and untreated cells served as controls. Cells were incubated for six hours at 37 °C and the supernatant from each treatment was collected and stored at −20 °C until use. Tumor necrosis factor-α (TNF-α) and interleukin-6 (IL-6) present in the supernatant was quantified using ELISA, as described previously. Cytokine levels were presented as the percent change relative to the LPS-stimulated control, using triplicate samples for each treatment condition.

TNF-α = assay: as above; type: cell-based, murine; conditions: J774A.1 cells, LPS 150 ng/mL, six hours
Experimental: as §1, §2

[2] = tested on: LPS-induced activation of the LAL enzyme (Limulus amoebocyte lysate); assay: Binding of peptides to lipopolysaccharide (LAL assay); type: biochemical; conditions: one EU of LPS, 37 °C, 30 minutes
Experimental: as §1
To determine the peptides’ ability to bind to LPS, a Limulus amoebocyte lysate (LAL) kit (Genscript, USA Inc.) was utilized, as described in previous reports. The peptides were dissolved in pyrogen-free water and serially diluted in the same solvent. The peptides were then incubated with one endotoxin unit (EU) of LPS at 37 °C for 30 minutes in order to permit the peptides to bind LPS. The reaction mixture (50 μL) was added to 50 μL of LAL reagent, and further incubated for 10 minutes. Next, 100 μL of LAL chromogenic substrate was added. The mixture was incubated at 37 °C for six minutes. The optical density (at 545 nm) was determined using a microplate reader. Colistin was used as a positive control. The binding of peptides with LPS was expressed as the percent change relative to the untreated control.

[3] = tested on: C. elegans strain glp-4;sek 1; assay: Toxicity of peptides in uninfected C. elegans; type: in vivo, Caenorhabditis elegans; conditions: worms grown four days with peptide; D-RR4 and colistin at 8 × MIC
Experimental: To test the efficacy of the synthetic peptides to protect against infections in vivo, we utilized a C. elegans model of bacterial infection. This model has been used extensively for early-stage evaluation of promising antimicrobials, [35], [36]. Initially, the lethal dose of D-RR4 against uninfected nematodes was determined.
(A) Evaluation of toxicity of peptides in Caenorhabditis elegans. C. elegans strain glp-4;sek 1 was grown for four days in the presence of peptides at different concentrations. Worms were monitored daily and the live worms were counted. Results are expressed as a Kaplan-Meier survival curve. (B) Evaluation of antimicrobial activity of peptides to reduce the bacterial CFU inside infected Caenorhabditis elegans. C. elegans strain glp-4; sek 1 were infected with P. aeruginosa PAO1, colistin-resistant P. aeruginosa 1109, or A. baumannii ATCC BAA-1605. […] After treatment, worms were lysed and bacteria were counted. One asterisk (*) indicates significant difference with the negative control. Two asterisks (**) indicates significant difference with the monotherapy treatment (P < 0.05). Results are expressed as means from three biological replicates ± standard deviation. (C) Efficacy of peptides in a Caenorhabditis elegans model of bacterial infection. […] Worms were monitored daily and the live worms were counted. Results are expressed as a Kaplan-Meier survival curve. C. elegans receiving no treatment served as a negative control.

A. baumannii = type: cell-based
Description: as §3

Substance Colistin [reference compound] has an MIC (P. aeruginosa; strain ATCC 9027) of 0.25 µM, an MIC (P. aeruginosa; strain ATCC 9721) of 0.5 µM and an MIC (P. aeruginosa; strain ATCC 10145) of 0.5 µM. The MIC (P. aeruginosa; strain ATCC 15442) was 0.25 µM, the MIC (P. aeruginosa; strain ATCC 25619) was 0.25 µM and the MIC (P. aeruginosa; strain ATCC 27853) was 0.25 µM. For the same substance, the MIC (P. aeruginosa; strain ATCC 35032) was 0.5 µM, the MIC (P. aeruginosa; strain ATCC BAA-1744) was 0.5 µM and the MIC (P. aeruginosa; strain PAO1) was 0.5 µM. For the same substance, the biofilm mass disrupted ([1]; 4 × MIC) was “more than 10%”, the biofilm mass disrupted ([1]; 8 × MIC) was > 25% and the biofilm mass disrupted ([1]; 16 × MIC) was > 28%. The biofilm mass disrupted ([1]; 32 × MIC) was > 75%, the “decrease of IL-6 production” value (IL-6; 10 µM) was > 95% and the “decrease of IL-6 production” value (IL-6; 20 µM) was > 95%. The “decrease of TNF-α production” value (TNF-α; 10 µM) was > 95%, the “decrease of TNF-α production” value (TNF-α; 20 µM) was > 95% and the “inhibition of LPS-induced activation of the LAL enzyme” value (from here on “inhibition”) ([2]; 5 µM peptide) was 51.2%. For the same substance, the “inhibition” value ([2]; 10 µM peptide) was 83.0%, the “inhibition” value ([2]; 15 µM peptide) was “Complete inhibition” and the “inhibition” value ([2]; 20 µM peptide) was “Complete inhibition”. For the same substance, the “toxicity to uninfected worms” value [3] was “not toxic”, the MIC (A. baumannii; strain ATCC 19606) was 0.125 µM and the MIC (A. baumannii; strain ATCC BAA-747) was 0.25 µM. The MIC (A. baumannii; strain ATCC BAA-1605) was 0.25 µM, the MIC (A. baumannii; strain NR-9667) was 0.0625 µM and the MIC (A. baumannii; strain NR-13374) was 0.125 µM. The MIC (A. baumannii; strain NR-13375) was 0.125 µM, the MIC (A. baumannii; strain NR-13382) was 0.5 µM and the MIC (A. baumannii; strain NR-17777) was 0.5 µM. For the same substance, the MIC (A. baumannii; strain NR-17778) was 0.0625 µM, the MIC (A. baumannii; strain NR-17780) was 0.25 µM and the MIC (A. baumannii; strain NR-17783) was 0.0625 µM. It also gave an MIC (A. baumannii; strain NR-17784) of 0.0625 µM, an MIC (A. baumannii; strain NR-17785) of 0.25 µM and an MIC (A. baumannii; strain NR-17786) of 0.0625 µM. It also gave an MIC (A. baumannii; strain NR-19298) of 0.25 µM and an MIC (A. baumannii; strain NR-19299) of 0.25 µM.
